For assay [1], the target named is CK1δ (Homo sapiens (Human), UniProt P48730). As to the kind of experiment: CK1δ kinase assay (Caliper LabChip, fluoresceinated peptide substrate). It counts as biochemical. As to conditions: 200 pM CK1δ, 50 μM ATP, 1.5 μM peptide substrate, 22 hours room temperature. As to the method: (§1) CK1ε and CK1δ Kinase Assays
(§2) The kinase assay was performed in V-bottom 384-well plates. […] The reaction was incubated at room temperature for 22 hours and terminated by adding 45 μl of 35 mM EDTA to each sample. […] Compounds were dissolved at 10 mM in dimethylsulfoxide (DMSO) and evaluated at eleven concentrations. IC50 values were derived by non-linear regression analysis.

Assay [2] deals with CK1ε (Homo sapiens (Human), UniProt P49674). Briefly: CK1ε kinase assay (Caliper LabChip, fluoresceinated peptide substrate). The class given is biochemical. As to conditions: 200 pM CK1ε, 50 μM ATP, 1.5 μM peptide substrate, 22 hours room temperature. As to the method: as §1, §2

In patent publication US9475817B2 (BRISTOL-MYERS SQUIBB COMPANY, priority 2012, dated 2016) one finds IC50 data, which are given here for 24 compounds.

Structures can show the parent of a compound that is named as a salt.

Sequence of CK1δ (P48730 whole entry): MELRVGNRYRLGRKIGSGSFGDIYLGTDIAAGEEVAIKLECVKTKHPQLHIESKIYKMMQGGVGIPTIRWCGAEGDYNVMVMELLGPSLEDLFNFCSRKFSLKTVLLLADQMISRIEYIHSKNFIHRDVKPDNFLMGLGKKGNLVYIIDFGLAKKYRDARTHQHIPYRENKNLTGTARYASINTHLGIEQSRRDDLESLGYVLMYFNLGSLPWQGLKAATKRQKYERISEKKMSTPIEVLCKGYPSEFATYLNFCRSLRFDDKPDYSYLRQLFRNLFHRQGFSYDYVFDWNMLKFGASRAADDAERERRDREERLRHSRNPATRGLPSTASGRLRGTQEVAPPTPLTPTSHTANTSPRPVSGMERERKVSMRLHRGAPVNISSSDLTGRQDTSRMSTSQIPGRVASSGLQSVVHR
Sequence of CK1ε (P49674 whole entry): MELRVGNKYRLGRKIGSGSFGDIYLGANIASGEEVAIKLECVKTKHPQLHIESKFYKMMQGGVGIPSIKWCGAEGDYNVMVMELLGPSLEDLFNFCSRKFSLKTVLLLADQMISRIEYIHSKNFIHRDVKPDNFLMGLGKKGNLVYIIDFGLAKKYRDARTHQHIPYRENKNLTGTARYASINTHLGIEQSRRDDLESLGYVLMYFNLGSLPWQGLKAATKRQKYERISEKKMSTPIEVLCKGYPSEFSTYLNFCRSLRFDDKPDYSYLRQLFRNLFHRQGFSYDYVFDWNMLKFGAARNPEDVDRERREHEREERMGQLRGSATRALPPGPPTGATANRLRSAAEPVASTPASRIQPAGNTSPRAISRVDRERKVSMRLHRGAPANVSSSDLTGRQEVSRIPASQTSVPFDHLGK

Consider `Cn1nc(-c2ccc(F)cc2)c(-c2ccc3nc(NC(=O)c4ccnc(F)c4)cn3n2)c1N1CCN(C[C@H](O)C(F)(F)F)CC1` [Compound 128, (S)-2-Fluoro-N-(6-(3-(4-fluorophenyl)-1-methyl-5-(4-(3,3,3-trifluoro-2-hydroxypropyl)piperazin-1-yl)-1H-pyrazol-4-yl)imidazo[1,2-b]pyridazin-2-yl)isonicotinamide], for which the values for the IC50 in assay [1] and in assay [2] were 1.5 nM and 10.6 nM, respectively.

Turning to `Cn1cc(-c2ccc3nc(NC(=O)c4cc(Cl)ccc4F)cn3n2)c(-c2ccc(F)cc2)n1` [Compound 47, 5-chloro-2-fluoro-N-(6-(3-(4-fluorophenyl)-1-methyl-1H-pyrazol-4-yl)imidazo[1,2-b]pyridazin-2-yl)benzamide], the half-maximal inhibitory concentration (IC50) in assay [1] is 5.2 nM; in assay [2] it was 19.9 nM.

As for `Cn1nc(-c2ccc(F)cc2)c(-c2ccc3nc(NC(=O)c4ccnc(N5CCOCC5)c4)cn3n2)c1N1CCN(C(=O)c2ccon2)CC1` [Compound 137, N-(6-(3-(4-Fluorophenyl)-5-(4-(isoxazole-3-carbonyl)piperazin-1-yl)-1-methyl-1H-pyrazol-4-yl)imidazo[1,2-b]pyridazin-2-yl)-2-morpholinoisonicotinamide], the IC50 worked out at 1 nM in assay [1] and 10.1 nM in assay [2].

Turning to `Cn1cc(-c2ccc3nc(NC(=O)c4cc(C(C)(C)C)ncn4)cn3n2)c(-c2ccc(F)cc2)n1` [Compound 32, 6-(tert-butyl)-N-(6-(3-(4-fluorophenyl)-1-methyl-1H-pyrazol-4-yl)imidazo[1,2-b]pyridazin-2-yl)pyrimidine-4-carboxamide], the IC50 in assay [1] was 10.1 nM; in assay [2] it was 98.3 nM.

For the compound `Cn1nc(-c2ccc(F)cc2)c(-c2ccc3nc(NC(=O)c4ccnc(F)c4)cn3n2)c1N1CCN(CCC#N)CC1` [Compound 125, N-(6-(5-(4-(2-Cyanoethyl)piperazin-1-yl)-3-(4-fluorophenyl)-1-methyl-1H-pyrazol-4-yl)imidazo[1,2-b]pyridazin-2-yl)-2-fluoroisonicotinamide], the IC50 amounted to 0.6 nM in assay [1] and 4.6 nM in assay [2].

As for `Cn1cc(-c2ccc3nc(NC(=O)C45CC6CC(C)(CC(C)(C6)C4)C5)cn3n2)c(-c2ccc(F)cc2)n1` [Compound 94, (1,3,5S7)-N-(6-(3-(4-fluorophenyl)-1-methyl-1H-pyrazol-4-yl)imidazo[1,2-b]pyridazin-2-yl)-3,5-dimethyladamantane-1-carboxamide], the IC50 in assay [1] amounted to 8.3 nM; in assay [2] it was 34.4 nM.

As for `Cn1nc(-c2ccc(F)cc2)c(-c2ccc3nc(NC(=O)c4ccncc4)cn3n2)c1C1CCN(Cc2cocn2)CC1` [Compound 172, N-(6-(3-(4-fluorophenyl)-1-methyl-5-(1-(oxazol-4-ylmethyl)piperidin-4-yl)-1H-pyrazol-4-yl)imidazo[1,2-b]pyridazin-2-yl) isonicotinamide], the concentration for half-maximal inhibition (IC50) in assay [1] was 4.5 nM; in assay [2], 10.4 nM.

For `CCc1ccc(C(=O)Nc2cn3nc(-c4cn(C)nc4-c4ccc(F)cc4)ccc3n2)nc1` [Compound 76, 5-ethyl-N-(6-(3-(4-fluorrophenyl)-1-methyl-1H-pyrazol-4-yl)imidazo[1,2-b]pyridazin-2-yl)picolinamide], the IC50 in assay [1] was 11.9 nM; in assay [2] it was 64 nM.

In the case of `Cn1nc(-c2ccc(F)cc2)c(-c2ccc3nc(NC(=O)c4ccnc(F)c4)cn3n2)c1C1CCOCC1` [Compound 196, 2-Fluoro-N-(6-(3-(4-fluorophenyl)-1-methyl-5-(tetrahydro-2H-pyran-4-yl)-1H-pyrazol-4-yl)imidazo[1,2-b]pyridazin-2-yl)isonicotinamide], the 50% inhibitory concentration (IC50) in assay [1] worked out at 0.2 nM; in assay [2], 2 nM.

As for `Cn1nc(-c2ccc(F)cc2)c(-c2ccc3nc(NC(=O)c4ccnc(N5CCOCC5)c4)cn3n2)c1N1CCN(C(=O)CC(F)(F)F)CC1` [Compound 138, N-(6-(3-(4-Fluorophenyl)-1-methyl-5-(4-(3,3,3-trifluoropropanoyl)piperazin-1-yl)-1H-pyrazol-4-yl)imidazo[1,2-b]pyridazin-2-yl)-2-morpholinoisonicotinamide], the IC50 came to 1.6 nM in assay [1] and 9.3 nM in assay [2].

As for `Cn1cc(-c2ccc3nc(NC(=O)c4ccncc4)c(Br)n3n2)c(-c2ccc(F)cc2)n1` [Compound 193, N-(3-Bromo-6-(3-(4-fluorophenyl)-1-methyl-1H-pyrazol-4-yl)imidazo[1,2-b]pyridazin-2-yl)isonicotinamide], the values for the concentration for half-maximal inhibition (IC50) in assay [1] and in assay [2] were 17 nM and 102 nM, respectively.

Take `Cn1nc(-c2ccc(F)cc2)c(-c2ccc3nc(NC(=O)c4ccnc(F)c4)cn3n2)c1N1CCN(CC(N)=O)CC1` [Compound 124, N-(6-(5-(4-(2-Amino-2-oxoethyl)piperazin-1-yl)-3-(4-fluorophenyl)-1-methyl-1H-pyrazol-4-yl)imidazo[1,2-b]pyridazin-2-yl)-2-fluoroisonicotinamide]: the IC50 in assay [1] turned out to be 0.2 nM; in assay [2], 1.3 nM.

Regarding `Cn1cc(-c2ccc3nc(NC(=O)c4ccc(F)cc4)cn3n2)c(-c2ccc(F)cc2)n1` [Compound 62, 4-fluoro-N-(6-(3-(4-fluorophenyl)-1-methyl-1H-pyrazol-4-yl)imidazo[1,2-b]pyridazin-2-yl)benzamide], the half-inhibitory concentration (IC50) in assay [1] is 7.2 nM; in assay [2], 28.1 nM.

For `Cc1nc(-c2ccncc2)sc1C(=O)Nc1cn2nc(-c3c(-c4ccc(F)cc4)nn(C)c3C3CCOCC3)ccc2n1` [Compound 200, N-(6-(3-(4-Fluorophenyl)-1-methyl-5-(tetrahydro-2H-pyran-4-yl)-1H-pyrazol-4-yl)imidazo[1,2-b]pyridazin-2-yl)-4-methyl-2-(pyridin-4-yl)thiazole-5-carboxamide], the half-maximal inhibitory concentration (IC50) in assay [1] came out at 0.3 nM; in assay [2] it was 3 nM.

For the compound `Cn1nc(-c2ccc(F)cc2)c(-c2ccc3nc(NC(=O)c4ccncc4)cn3n2)c1C1CCN(Cc2cc[nH]n2)CC1` [Compound 170, N-(6-(5-(1-((1H-pyrazol-3-yl)methyl)piperidin-4-yl)-3-(4-fluorophenyl)-1-methyl-1H-pyrazol-4-yl)imidazo[1,2-b]pyridazin-2-yl) isonicotinamide], the IC50 in assay [1] worked out at 2.6 nM; in assay [2], 7.4 nM.

On to `Cc1nc(-c2ccncc2)sc1C(=O)Nc1cn2nc(-c3c(-c4ccc(F)cc4)nn(C)c3C3CCN(CCC(F)(F)F)CC3)ccc2n1` [Compound 181, N-(6-(3-(4-fluorophenyl)-1-methyl-5-(1-(3,3,3-trifluoropropyl)piperidin-4-yl)-1H-pyrazol-4-yl)imidazo[1,2-b]pyridazin-2-yl)-4-methyl-2-(pyridin-4-yl)thiazole-5-carboxamide], for which the IC50 in assay [1] was found to be 1.1 nM; in assay [2] it was 14.3 nM.

On to `COc1cc(F)cc(C(=O)Nc2cn3nc(-c4cn(C)nc4-c4ccc(F)cc4)ccc3n2)c1` [Compound 45, 3-fluoro-N-(6-(3-(4-fluorophenyl)-1-methyl-1H-pyrazol-4-yl)imidazo[1,2-b]pyridazin-2-yl)-5-methoxybenzamide], for which the IC50 in assay [1] amounted to 1.9 nM; in assay [2] it was 6.8 nM.

As for `O=C(Nc1cn2nc(-c3cn(C4CC4)nc3-c3ccc(F)cc3)ccc2n1)c1cccc(-c2cccnc2)c1` [Compound 108, N-(6-(1-cyclopropyl-3-(4-fluorophenyl)-1H-pyrazol-4-yl)imidazo[1,2-b]pyridazin-2-yl)-3-(pyridin-3-yl) benzamide], the IC50 worked out at 2 nM in assay [1] and 32.6 nM in assay [2].

`Cc1c(NC(=O)c2ccccc2)nc2ccc(-c3cn(C)nc3-c3ccc(F)cc3)nn12` [Compound 195, N-(6-(3-(4-Fluorophenyl)-1-methyl-1H-pyrazol-4-yl)-3-methylimidazo[1,2-b]pyridazin-2-yl)benzamide, 2 TFA]: the half-maximal inhibitory concentration (IC50) in assay [1] worked out at 54 nM; in assay [2], 137 nM.

Consider `O=C(Nc1cn2nc(-c3cn(C4CC4)nc3-c3ccc(F)cc3)ccc2n1)c1cc(F)nc(F)c1` [Compound 105, N-(6-(1-cyclopropyl-3-(4-fluorophenyl)-1H-pyrazol-4-yl)imidazo[1,2-b]pyridazin-2-yl)-2,6-difluoroisonicotinamide], for which the figures for the half-inhibitory concentration (IC50) in assay [1] and in assay [2] were 4.8 nM and 46.5 nM, respectively.

Turning to `Cc1nc(-c2ccncc2)sc1C(=O)Nc1cn2nc(-c3c(-c4ccc(F)cc4)nn(C)c3C3CCNCC3)ccc2n1` [Compound 179, N-(6-(3-(4-Fluorophenyl)-1-methyl-5-(piperidin-4-yl)-1H-pyrazol-4-yl)imidazo[1,2-b]pyridazin-2-yl)-4-methyl-2-(pyridin-4-yl)thiazole-5-carboxamide], the IC50 in assay [1] stood at 1.4 nM; in assay [2], 1.5 nM.

Take `Cn1nc(-c2ccc(F)cc2)c(-c2ccc3nc(NC(=O)c4ccncc4)cn3n2)c1-c1ccncc1` [Compound 204, N-(6-(3-(4-Fluorophenyl)-1-methyl-5-(pyridin-4-yl)-1H-pyrazol-4-yl)imidazo[1,2-b]pyridazin-2-yl)isonicotinamide]: the concentration for half-maximal inhibition (IC50) is 0.4 nM in assay [1] and 3.2 nM in assay [2].

`Cn1cc(-c2ccc3nc(NC(=O)C45CC6CC(CC(C6)C4)C5)cn3n2)c(-c2ccc(F)cc2)n1` [Compound 93, (3,5,7)-N-(6-(3-(4-fluorophenyl)-1-methyl-1H-pyrazol-4-yl)imidazo[1,2-b]pyridazin-2-yl)adamantane-1-carboxamide]: the results for the IC50 in assay [1] and in assay [2] were 4.1 nM and 6 nM, respectively.

Take `Cc1nc(-c2ccccn2)sc1C(=O)Nc1cn2nc(-c3cn(C)nc3-c3ccc(F)cc3)ccc2n1` [Compound 6, N-(6-(3-(4-fluorophenyl)-1-methyl-1H-pyrazol-4-yl)imidazo[1,2-b]pyridazin-2-yl)-4-methyl-2-(pyridin-2-yl)thiazol-5-carboxamide]: the half-maximal inhibitory concentration (IC50) was determined as 4.3 nM in assay [1] and 17.3 nM in assay [2].
